Patent US12624019B2, “Indazole derivative, and preparation method therefor and use thereof” (Leadingtac Pharmaceutical (Shaoxing) Co., Ltd., priority 2020, dated 2026)

Columns and labels:
[1] = molecular target: T1, IRAK4 kinase protein in THP-1 cells (Homo sapiens, UniProt Q9NWZ3); experiment: Degradation of IRAK4 in THP-1 cells by Western Blot; assay type: cell-based; settings: 24 hours
T1 construct: endogenous in cells; host or cells: THP-1 cells
T1 sequence (Q9NWZ3 1-460): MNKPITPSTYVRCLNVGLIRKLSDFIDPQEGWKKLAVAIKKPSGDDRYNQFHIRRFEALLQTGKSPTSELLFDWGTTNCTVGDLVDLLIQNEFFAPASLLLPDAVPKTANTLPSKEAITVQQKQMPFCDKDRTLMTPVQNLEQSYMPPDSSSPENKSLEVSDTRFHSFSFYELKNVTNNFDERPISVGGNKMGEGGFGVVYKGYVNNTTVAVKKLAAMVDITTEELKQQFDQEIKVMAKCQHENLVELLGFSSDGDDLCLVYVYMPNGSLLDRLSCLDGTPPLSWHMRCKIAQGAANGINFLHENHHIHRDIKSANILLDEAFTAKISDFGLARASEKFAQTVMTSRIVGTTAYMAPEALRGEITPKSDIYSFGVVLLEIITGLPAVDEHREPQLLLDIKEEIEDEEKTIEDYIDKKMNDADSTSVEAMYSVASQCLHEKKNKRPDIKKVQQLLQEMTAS
Protocol: Each well of the 24-well cell culture plate was inoculated with 0.95 mL THP-1 cells (stem cell bank of Chinese academy of sciences) with a cell density of 5×10^5 cells/well. The cell plate was placed in a 5% carbon dioxide incubator and cultured overnight at 37° C., then 50 μL compound in dimethyl sulfoxide was added. The final concentration of the compound was in the range of 1-3000 nM. After continuous cultivation for 24 hours, the cells were collected into a 1.5 mL centrifuge tube, centrifuged at 1000 rpm and 4° C. for 5 minutes. Cell precipitation was washed twice with 1×DPBS, resuspended cells were lysed with 200 μL lysate (cell lysate was Western and IP cell lysate (Beyotime), supplemented with 1 mM mixture of phenylmethylsulfonyl fluoride and protease inhibitor (Beyotime)), left on ice for 30 minutes, then centrifuged at 14000 g at 4° C. for 10 minutes, and the supernatant was taken to detect IRAK4 protein level by Western blot.
The total protein concentration in the supernatant of cell lysis was determined by BCA protein quantitative kit (Tiangen). According to the concentration of total protein detected by BCA, the supernatant was adjusted to […] with PBS and 5×SDS-PAGE protein loading buffer (Beyotime), bathed in water at 100° C. for 10 minutes, then placed in ice bath for 5 minutes, centrifuged at 14000 g and 4° C. for 5 minutes, and then collected as WB loading sample. Prefabricated glue (KeyGEN) was used for protein electrophoresis with a loading amount of 10 μL (total protein 2 μg). After Tris-MOPS-SDS electrophoresis solution (Adamas), 120V constant pressure electrophoresis was performed. After electrophoresis, the protein on the adhesive strip was transferred to PVDF membrane with a constant current of […] for 50 minutes. After the membrane was transferred, the membrane was added in 1×QuickBlock blocking buffer (Beyotime) and incubated for 30 minutes at room temperature. After blocking, PVDF membranes were incubated with IRAK4 primary antibody (Abcam) overnight at 4°, the membranes were washed with TBST buffer (2.4 g Tris, 8.8 g NaCl, 1.5 mL Tween 20, pH adjusted to 7.4, constant volume to 1 L) for 30 minutes, incubated with secondary antibody (Abcam) for 2 hours at room temperature, finally incubated with Clarity Western ECL Substrate (BIO-RAD) for 5 minutes for luminescence development, chemiluminescence imaging system (Clinx, chemiScope 6200 Touch) was used for development and protein mapping photography. The protein map was analyzed by Clinx chemiluminescence analysis software for grayscale values. Using the formula: grayscale correction value=(target protein grayscale value/corresponding internal reference grayscale value)×[…], the grayscale correction value of each sample was calculated. The degradation rate was calculated by comparing with the grayscale correction value of the control group. Furthermore, DC50 and Dmax values of the compound were obtained by the nonlinear curve fitting with the logarithmic concentration-inhibition rate by GraphPad Prism 7.

IKZF3 = molecular target: T2, IKZF3 (Homo sapiens, UniProt Q96SW2+Q9UKT9); experiment: Degradation of IKZF3 in L363 cells by Western blot; assay type: cell-based; settings: compound 1000 nM, 16 hours
T2 construct: endogenous in cells; host or cells: L363 cells
Protocol: The 24-well cell culture plate was inoculated with 0.95 mL L363 cells (Nanjing Co-bioer) per well with a cell density of 6×10^5 cells/well. The cell plate was placed in a 5% carbon dioxide incubator and cultured at 37° C. for 8 hours, then 50 μL of compound solution was added. The final concentration of the compound was 1000 nM. After continuing to culture for 16 hours, the cells were collected into a 1.5 mL centrifuge tube and centrifuged at 3000 rpm and 4° C. for 5 minutes. Cell precipitation was washed twice with 1×DPBS, resuspended cells were lysed with 100 μL lysate (cell lysate was Western and IP cell lysate (Beyotime), supplemented with 1 mM mixture of phenylmethylsulfonyl fluoride and protease inhibitor (Beyotime)), left on ice for 30 minutes, then centrifuged at 14000 g at 4° C. for 10 minutes, and the supernatant was taken to detect IKZF1 and IKZF3 protein level by Western blot.
The total protein concentration in the supernatant of cell lysis was determined by BCA protein quantitative kit (Tiangen). According to the concentration of total protein detected by BCA, the supernatant was adjusted to […] with PBS and 5×SDS-PAGE protein loading buffer (Beyotime), bathed in water at 100° C. for 10 minutes, then placed in ice bath for 5 minutes, centrifuged at 14000 g and 4° C. for 5 minutes, and then collected as WB loading sample. Prefabricated glue (KeyGEN) was used for protein electrophoresis with a loading amount of 10 μL (total protein 2 μg). After Tris-MOPS-SDS electrophoresis solution (Adamas), 120V constant pressure electrophoresis was performed. After electrophoresis, the protein on the adhesive strip was transferred to PVDF membrane with a constant current of […] for 50 minutes. After the membrane was transferred, the membrane was incubated in 5% bovine serum albumin solution for 2 hours at room temperature. After blocking, PVDF membranes were incubated with IKZF1 primary antibody (CST) and IKZF3 primary antibody (Abcam) overnight at 4°, the membranes were washed with TBST buffer (2.4 g Tris, 8.8 g NaCl, 1.5 mL Tween 20, pH adjusted to 7.4, constant volume to 1 L) for 30 minutes, incubated with secondary antibody (Abcam) for 2 hours at room temperature, finally incubated with Clarity Western ECL Substrate (BIO-RAD) for 5 minutes for luminescence development, chemiluminescence imaging system (Clinx, chemiScope 6200 Touch) was used for development and protein mapping photography. The protein map was analyzed by Clinx chemiluminescence analysis software for grayscale values. Using the formula: grayscale correction value=(target protein grayscale value/corresponding internal reference grayscale value)×10^3, the grayscale correction value of each sample was calculated. The degradation rate was calculated by comparing with the grayscale correction value of the control group.

T2 sequence (Q9UKT9 whole entry): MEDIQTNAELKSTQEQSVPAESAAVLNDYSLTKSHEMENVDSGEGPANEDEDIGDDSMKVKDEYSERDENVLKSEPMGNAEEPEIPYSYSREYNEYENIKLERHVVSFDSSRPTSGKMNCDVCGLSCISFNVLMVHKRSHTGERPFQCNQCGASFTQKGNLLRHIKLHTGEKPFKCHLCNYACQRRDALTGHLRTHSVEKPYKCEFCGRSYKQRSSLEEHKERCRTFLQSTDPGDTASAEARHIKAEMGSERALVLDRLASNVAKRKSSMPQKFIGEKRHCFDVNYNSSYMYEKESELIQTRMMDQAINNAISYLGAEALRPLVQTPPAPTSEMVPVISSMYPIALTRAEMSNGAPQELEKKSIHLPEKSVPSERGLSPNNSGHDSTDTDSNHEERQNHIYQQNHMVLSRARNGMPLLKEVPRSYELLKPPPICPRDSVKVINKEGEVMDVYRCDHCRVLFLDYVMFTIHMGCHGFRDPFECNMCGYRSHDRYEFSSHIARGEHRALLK
T2 sequence (Q96SW2 whole entry): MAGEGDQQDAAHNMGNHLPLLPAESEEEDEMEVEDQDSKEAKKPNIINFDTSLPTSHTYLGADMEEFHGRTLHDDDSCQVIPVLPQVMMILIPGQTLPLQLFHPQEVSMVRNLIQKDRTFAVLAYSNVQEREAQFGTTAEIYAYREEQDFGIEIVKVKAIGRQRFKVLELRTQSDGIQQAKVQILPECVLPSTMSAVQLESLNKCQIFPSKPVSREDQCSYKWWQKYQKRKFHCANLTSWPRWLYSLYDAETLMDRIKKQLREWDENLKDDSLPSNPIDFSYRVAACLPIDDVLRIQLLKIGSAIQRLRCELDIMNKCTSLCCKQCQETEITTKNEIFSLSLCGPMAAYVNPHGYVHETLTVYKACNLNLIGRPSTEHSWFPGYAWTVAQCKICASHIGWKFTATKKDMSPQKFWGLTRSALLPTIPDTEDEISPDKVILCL
T2 sequence (Q16531 whole entry partner): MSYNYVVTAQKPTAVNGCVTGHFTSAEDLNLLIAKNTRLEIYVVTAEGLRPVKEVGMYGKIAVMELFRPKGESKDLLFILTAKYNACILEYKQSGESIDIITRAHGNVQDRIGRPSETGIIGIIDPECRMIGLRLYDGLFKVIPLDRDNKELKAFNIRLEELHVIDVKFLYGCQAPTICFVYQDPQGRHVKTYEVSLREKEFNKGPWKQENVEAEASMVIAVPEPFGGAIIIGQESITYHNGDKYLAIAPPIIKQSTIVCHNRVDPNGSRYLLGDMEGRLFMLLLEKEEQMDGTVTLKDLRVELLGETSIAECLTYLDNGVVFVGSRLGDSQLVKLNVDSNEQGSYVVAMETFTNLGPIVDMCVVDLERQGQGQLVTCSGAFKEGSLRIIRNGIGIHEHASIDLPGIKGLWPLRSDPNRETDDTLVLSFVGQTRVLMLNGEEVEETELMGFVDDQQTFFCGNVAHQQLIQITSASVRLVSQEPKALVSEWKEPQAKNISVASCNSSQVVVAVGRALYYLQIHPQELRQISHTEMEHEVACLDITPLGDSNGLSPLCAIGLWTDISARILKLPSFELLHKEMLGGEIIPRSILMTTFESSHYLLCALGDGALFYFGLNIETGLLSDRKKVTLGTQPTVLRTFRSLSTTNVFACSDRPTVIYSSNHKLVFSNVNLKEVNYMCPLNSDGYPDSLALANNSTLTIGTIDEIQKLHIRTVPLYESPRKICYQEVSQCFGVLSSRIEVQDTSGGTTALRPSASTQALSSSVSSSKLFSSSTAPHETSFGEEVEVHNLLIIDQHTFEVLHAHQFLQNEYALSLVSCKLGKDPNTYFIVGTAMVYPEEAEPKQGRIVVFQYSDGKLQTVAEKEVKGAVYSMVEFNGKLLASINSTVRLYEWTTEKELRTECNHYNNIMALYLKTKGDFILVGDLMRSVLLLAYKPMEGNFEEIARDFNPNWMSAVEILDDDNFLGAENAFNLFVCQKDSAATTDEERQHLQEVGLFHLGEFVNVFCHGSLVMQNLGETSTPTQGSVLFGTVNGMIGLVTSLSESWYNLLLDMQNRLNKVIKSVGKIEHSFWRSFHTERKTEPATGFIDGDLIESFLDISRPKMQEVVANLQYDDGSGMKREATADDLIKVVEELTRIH

DC50 ([1]; IRAK4 degradation in THP-1 cells, read-out: WB DC50): 11.9 nM
Dmax ([1]; IRAK4 degradation in THP-1 cells, read-out: WB Dmax): 90.9%
WB D(%) (300 nM) ([1]; degradation percentage of IRAK4 in THP-1 cells, compound 300 nM): 89.5%
WB D(%) (1000 nM) ([1]; degradation percentage of IRAK4 in THP-1 cells, compound 1000 nM): 87.3%
IKZF3 degradation rate (%) (IKZF3): 8.4 ± 6.0%
Compound: CC(C)(O)c1cc2nn(C3CCN(CCCC4CCN(c5ccc6c(c5)C(=O)N(C5CCC(=O)NC5=O)C6=O)CC4)CC3)cc2cc1NC(=O)c1cccc(C(F)(F)F)n1 (centres unmarked) [Example 6, N-(2-(1-(3-(1-(2-(2,6-dioxopiperidin-3-yl)-1,3-dioxoisoindolin-5-yl)piperidin-4-yl)propyl)piperidin-4-yl)-6-(2-hydroxyprop-2-yl)-2H-indazol-5-yl)-6-(trifluoromethyl) pyridinecarboxamide]
